Reference: the supplement of paper PMC10307832

Compound: CN(C)CC1=CC(=CC=C1)N=C(C2=CC=CC=C2)C3=C(NC4=C3C=CC(=C4)C(=O)N(C)C)O + Cc1cc(Nc2cc(N3CCN(C)CC3)nc(Sc3ccc(NC(=O)C4CC4)cc3)n2)n[nH]1 [Tozasertib] (partner 0.1 µM)
Assay: relative viability (nuclei count vs DMSO), 5 days (fraction); higher = more cells survive
Procedure, shortened: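 For relative viability, nuclei counts in treated wells were divided by those in vehicle wells. Lung cancer cell lines had been pin-tool dosed in 1536-well plates the day after seeding and cultured for 5 days, then fixed and stained in one step (final 0.05% Triton X-100, 1% formaldehyde, 1 ug/ml Hoechst) and imaged at 4×. Doses were one drug alone or a fixed anchor-drug dose plus five library-drug doses (not always all listed) in √10 steps, and values are duplicate-plate medians.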

Row | Cell Line | relative viability (first compound 0.08 µM) | relative viability (first compound 0.253 µM) | relative viability (first compound 0.8 µM) | relative viability (first compound 2.53 µM) | relative viability (first compound 8 µM)
1 | 201T | 0.937 | 0.97 | 0.857 | 0.904 | 0.809
2 | A-427 | 0.22 | 0.188 | 0.182 | 0.213 | 0.147
3 | ABC-1 | 0.198 | 0.173 | 0.15 | 0.179 | 0.171
4 | BEN | 0.619 | 0.493 | 0.5 | 0.426 | 0.538
5 | CAL-12T | 0.375 | 0.342 | 0.311 | 0.308 | 0.292
6 | COR-L23 | 0.185 | 0.226 | 0.201 | 0.205 | 0.154
7 | COR-L 105 | 0.372 | 0.369 | 0.336 | 0.346 | 0.361
8 | ChaGo-K-1 | 0.235 | 0.25 | 0.217 | 0.22 | 0.213
9 | EKVX | 0.445 | 0.387 | 0.459 | 0.378 | 0.323
10 | EMC-BAC-2 | 0.297 | 0.283 | 0.383 | 0.258 | 0.267
11 | EPLC-272H | 0.351 | 0.392 | 0.303 | 0.278 | 0.272
12 | H3255 | 0.528 | 0.575 | 0.65 | 0.71 | 0.484
13 | HARA | 0.11 | 0.125 | 0.0998 | 0.108 | 0.0768
14 | HCC-15 | 0.424 | 0.387 | 0.39 | 0.365 | 0.453
15 | HCC-44 | 1.08 | 0.836 | 1.03 | 0.927 | 0.862
16 | HCC-78 | 0.507 | 0.426 | 0.403 | 0.383 | 0.364
17 | HCC-366 | 0.17 | 0.133 | 0.131 | 0.153 | 0.118
18 | HCC-827 | 0.435 | 0.457 | 0.376 | 0.408 | 0.396
19 | HOP-62 | 0.389 | 0.383 | 0.364 | 0.334 | 0.376
20 | LC-2-ad | 0.503 | 0.409 | 0.415 | 0.492 | 0.407
21 | LCLC-97TM1 | 0.219 | 0.256 | 0.224 | 0.283 | 0.255
22 | LCLC-103H | 0.455 | 0.524 | 0.551 | 0.516 | 0.509
23 | LK-2 | 0.162 | 0.165 | 0.171 | 0.188 | 0.198
24 | LOU-NH91 | 0.68 | 0.673 | 0.54 | 0.642 | 0.629

Row | Cell Line | relative viability (first compound 0.08 µM) | relative viability (first compound 0.253 µM) | relative viability (first compound 0.8 µM) | relative viability (first compound 2.53 µM) | relative viability (first compound 8 µM)
25 | LU99A | 0.312 | 0.3 | 0.384 | 0.22 | 0.198
26 | LXF-289 | 0.174 | 0.19 | 0.137 | 0.159 | 0.197
27 | NCI-H23 | 0.355 | 0.454 | 0.413 | 0.411 | 0.366
28 | NCI-H322M | 0.432 | 0.42 | 0.407 | 0.449 | 0.317
29 | NCI-H358 | 0.105 | 0.0937 | 0.0915 | 0.096 | 0.116
30 | NCI-H441 | 0.625 | 0.603 | 0.67 | 0.634 | 0.588
31 | NCI-H460 | 0.292 | 0.574 | 0.62 | 0.426 | 0.397
32 | NCI-H520 | 0.45 | 0.373 | 0.425 | 0.454 | 0.386
33 | NCI-H522 | 0.544 | 0.46 | 0.546 | 0.587 | 0.62
34 | NCI-H596 | 0.898 | 0.851 | 0.826 | 0.847 | 0.906
35 | NCI-H647 | 0.262 | 0.362 | 0.263 | 0.356 | 0.235
36 | NCI-H650 | 0.815 | 0.754 | 0.683 | 0.718 | 0.663
37 | NCI-H661 | 0.374 | 0.345 | 0.355 | 0.319 | 0.367
38 | NCI-H727 | 0.361 | 0.721 | 0.608 | 0.647 | 0.486
39 | NCI-H838 | 0.276 | 0.27 | 0.274 | 0.264 | 0.268
40 | NCI-H1355 | 0.551 | 0.616 | 0.414 | 0.539 | 0.428
41 | NCI-H1395 | 0.85 | 0.831 | 0.789 | 0.746 | 0.771
42 | NCI-H1437 | 0.431 | 0.443 | 0.37 | 0.387 | 0.4
43 | NCI-H1648 | 0.419 |  | 0.572 | 0.383 | 0.396
44 | NCI-H1650 | 0.352 | 0.498 | 0.421 | 0.405 | 0.343
45 | NCI-H1651 | 0.621 | 0.755 | 0.71 | 0.595 | 0.692
46 | NCI-H1666 | 0.642 | 0.59 | 0.675 | 0.603 | 0.868
47 | NCI-H1734 | 0.259 | 0.262 | 0.227 | 0.268 | 0.247
48 | NCI-H1755 | 0.531 | 0.479 | 0.642 | 0.594 | 0.615

Row | Cell Line | relative viability (first compound 0.08 µM) | relative viability (first compound 0.253 µM) | relative viability (first compound 0.8 µM) | relative viability (first compound 2.53 µM) | relative viability (first compound 8 µM)
49 | NCI-H1793 | 0.305 | 0.385 |  | 0.368 | 0.347
50 | NCI-H1915 | 0.474 | 0.409 | 0.432 | 0.407 | 0.414
51 | NCI-H1944 | 0.25 | 0.251 | 0.222 | 0.262 | 0.214
52 | NCI-H1975 | 0.807 | 0.785 | 0.736 | 0.757 | 0.708
53 | NCI-H1993 | 0.623 | 0.525 | 0.524 | 0.584 | 0.646
54 | NCI-H2009 | 0.767 | 0.723 | 0.721 | 0.551 | 0.699
55 | NCI-H2023 | 0.333 | 0.342 | 0.291 | 0.307 | 0.343
56 | NCI-H2085 | 0.862 | 0.901 | 0.793 | 0.781 | 0.829
57 | NCI-H2087 | 0.242 | 0.233 | 0.265 | 0.27 | 0.233
58 | NCI-H2126 | 0.961 | 0.849 | 0.856 | 0.825 | 0.837
59 | NCI-H2170 | 0.749 | 0.8 | 0.586 | 0.679 | 0.609
60 | NCI-H2228 | 0.221 | 0.332 | 0.265 | 0.228 | 0.232
61 | NCI-H2342 | 0.497 | 0.601 | 0.549 | 0.45 | 0.613
62 | NCI-H2347 | 0.615 | 0.522 | 0.522 | 0.56 | 0.603
63 | NCI-H2405 | 0.748 | 0.74 | 0.748 | 0.662 | 0.645
64 | NCI-H3122 | 0.416 | 0.359 | 0.448 | 0.383 | 0.438
65 | PC-3 [JPC-3] | 0.877 | 0.855 | 0.854 | 0.814 | 0.922
66 | PC-14 | 0.564 | 0.604 | 0.618 | 0.531 | 0.649
67 | RERF-LC-KJ | 0.494 | 0.493 | 0.536 | 0.523 | 0.408
68 | SK-LU-1 | 0.262 | 0.327 | 0.33 | 0.351 | 0.295
69 | SK-MES-1 | 0.846 | 0.944 | 0.892 | 0.849 | 0.824
70 | SW 1573 | 0.292 | 0.172 | 0.149 | 0.176 | 0.152
71 | UMC-11 | 0.202 | 0.192 | 0.216 | 0.183 | 0.216
